Test results as given in US11154563B2, “Immunoproteasome inhibitors” (Principia Biopharma Inc., priority 2017, dated 2021).

How the values were obtained:
Type in all cases: biochemical
[1] = molecular target: constitutive proteasome β5c unit (Homo sapiens, UniProt P20618+P28074); experiment: Caliper-based proteasome enzymatic activity assay, β5c; conditions: human recombinant constitutive proteasome 0.3 nM, FAM-peptide substrate 1 μM, 3 h at rt; read-out: β5c subunit IC50
Procedure, shortened: (§1)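 Recombinant human immunoproteasome or constitutive proteasome (0.3 nM) with 1 μM FAM-peptide in 20 mM Hepes pH 7.4, 0.015% SDS, 0.01% BSA; LMP7/β5c ran 3 h at rt and were stopped with 5 uM carfilzomib, LMP2 ran 2 h and was stopped with 6.7 uM ixazomib. Cleaved product quantified by microfluidic separation; IC50 from percent inhibition.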

[2] = molecular target: immunoproteasome LMP7/B5i subunit (Homo sapiens, UniProt P20618+P28062); experiment: Caliper-based proteasome enzymatic activity assay, LMP7; conditions: human recombinant immunoproteasome 0.3 nM, FAM-peptide substrate 1 μM, 3 h at rt
Procedure, shortened: as §1

[3] = molecular target: immunoproteasome LPM2/β1i subunit (Homo sapiens, UniProt P28065+P40306); experiment: Caliper-based proteasome enzymatic activity assay, LMP2; conditions: human recombinant immunoproteasome 0.3 nM, FAM-peptide substrate 1 μM, 2 h at rt
Description: A Caliper-based proteasome assay (Caliper Life Sciences, Hopkinton, Mass.) was used to measure inhibition of the immunoproteasome LMP7/B5i subunit, the immunoproteasome LPM2/β1i subunit, and the constitutive proteasome β5c unit for a compound of Formula (I). For LMP7 and β5c, serial dilutions of test compounds were incubated with either human recombinant immunoprotcasome or constitutive proteasome (0.3 nM enzyme) and a carboxyfluorescein (FAM)-labeled peptide substrate FAM-TYETFKSIMKKSPF-NH2 (1 μM) at it for 3 h. The reaction was then terminated with a buffer containing the known proteasome inhibitor carfilzomib at a concentration of 5 uM. For LMP2, serial dilutions of test compounds were incubated with human recombinant immunoproteasome proteasome (0.3 nM enzyme) and a carboxyfluorescein (FAM)-labeled peptide substrate FAM-[…]-NH2 (1 μM) at rt for 2 h. The reaction was then terminated with a buffer containing the known proteasome inhibitor ixazomib at a concentration of 6.7 uM. The reaction buffer was 20 mM Hepes pH 7.4, 0.01% bovine serum albumin, 0.015% SDS, 0.5 mM EDTA, 1%0/DMSO. The peptide cleavage reaction product was quantified on a Caliper LabChip 3000. Percent inhibition was calculated for each compound dilution and the concentration that produced 50% inhibition was calculated. This value is presented as the IC50.

Structure (SMILES)	IC50 [1]	IC50 [2]	IC50 [3]
C=CC(=O)N1CCCC[C@@H]1COC(=O)N[C@@H](Cc1ccccc1)B(O)O [Example 8, ((R)-1-(((((R)-1-acryloylpiperidin-2-yl)methoxy)carbonyl)amino)-2-phenylethyl)boronic acid]	> 5000 nM	> 5000 nM	> 5000 nM
CC(C)(C)/C=C(\C#N)C(=O)N1CCCC[C@H]1COC(=O)N[C@@H](Cc1ccccc1)B(O)O [Example 9, ((R)-1-(((((S)-1-((E)-2-cyano-4,4-dimethylpent-2-enoyl)piperidin-2-yl)methoxy)carbonyl)amino)-2-phenylethyl)boronic acid]	> 5000 nM	14 nM	3650 nM
C=CC(=O)N1CCCC[C@H]1COC(=O)N[C@@H](Cc1ccccc1)B(O)O [Example 11, ((R)-1-(((((S)-1-acryloylpiperidin-2-yl)methoxy)carbonyl)amino)-2-phenylethyl)boronic acid]	> 5000 nM	957 nM	3240 nM
CC(C)C=C(C#N)C(=O)N1CCC[C@H]1COC(=O)N[C@@H](Cc1ccccc1)B(O)O [Example 12, ((R)-1-(((((S)-1-(2-cyano-4-methylpent-2-enoyl)pyrrolidin-2-yl)methoxy)carbonyl)amino)-2-phenylethyl)boronic acid]	> 5000 nM	39 nM	> 5000 nM
CC(C)C=C(C#N)C(=O)N1CCCC[C@H]1COC(=O)N[C@@H](Cc1ccccc1)B(O)O [Example 13, ((R)-1-(((((S)-1 (2-cyano-4-methylpent-2-enoyl)piperidin-2-yl)methoxy)carbonyl)amino)-2-phenylethyl)boronic acid]	> 5000 nM	38 nM	4040 nM
C=CC(=O)N1CCC[C@@H]1COC(=O)N[C@@H](Cc1ccccc1)B(O)O [Example 14, ((R)-1-(((((R)-1-acryloylpyrrolidin-2-yl)methoxy)carbonyl)amino)-2-phenylethyl)boronic acid]	4850 nM	123 nM	> 5000 nM
CC(C)(C=C(C#N)C(=O)N1CCC[C@@H]1COC(=O)N[C@@H](Cc1ccccc1)B(O)O)N1CCCCC1 [Example 20, ((R)-1-(((((R)-1-(2-cyano-4-methyl-4-(piperidin-1l-yl)pent-2-enoyl)pyrrolidin-2-yl)methoxy)carbonyl)amino)-2-phenylethyl)boronic acid]	4540 nM	3.6 nM	> 5000 nM
CC(C)(C)C=C(C#N)C(=O)N1C[C@H]2C[C@H]2[C@H]1COC(=O)N[C@@H](Cc1ccccc1)B(O)O [Example 22, ((R)-1-(((((1R,2S,5S)-3-(2-cyano-4,4-dimethylpent-2-enoyl)-3-azabicyclo[3.1.0]hexan-2-yl)methoxy)carbonyl)amino)-2-phenylethyl)boronic acid]	> 5000 nM	1.8 nM	> 5000 nM
CC(C)(C=C(C#N)C(=O)N1CCC[C@@H]1COC(=O)N[C@@H](Cc1ccccc1)B(O)O)N1CCOCC1 [Example 23, ((R)-1-(((((R)-1-(2-cyano-4-methyl-4-morpholinopent-2-enoyl)pyrrolidin-2-yl)methoxy)carbonyl)amino)-2-phenylethyl)boronic acid]	> 5000 nM	2.6 nM	> 5000 nM
CC(C)(C=C(C#N)C(=O)N1CCCC[C@@H]1COC(=O)N[C@@H](Cc1ccccc1)B(O)O)N1CCN(C2COC2)CC1 [Example 126, ((R)-1-(((((R)-1-(2-cyano-4-methyl-4-(4-(oxetan-3-yl)piperazin-1-yl)pent-2-enoyl)piperidin-2-yl)methoxy)carbonyl)amino)-2-phenylethyl)boronic acid]	> 5000 nM	21 nM	–

Now those with a lower IC50 [1], led by results:

IC50 [1]	IC50 [2]	IC50 [3]	Structure (SMILES)
444 nM	2.5 nM	> 5000 nM	CC(C)C=C(C#N)C(=O)N1CCC[C@@H]1COC(=O)N[C@@H](Cc1coc2ccccc12)B(O)O [Example 16, ((R)-2-(benzofuran-3-yl)-1-(((((R)-1-(2-cyano-4-methylpent-2-enoyl)pyrrolidin-2-yl)methoxy)carbonyl)amino)ethyl)boronic acid]
2950 nM	1.9 nM	> 5000 nM	CC(C)(C=C(C#N)C(=O)N1CCC[C@@H]1COC(=O)N[C@@H](Cc1ccccc1)B(O)O)N1CCN(C2COC2)CC1 [Example 17, ((R)-1-(((((R)-1-(2-cyano-4-methyl-4-(4-(oxetan-3-yl)piperazin-1-yl)pent-2-enoyl)pyrrolidin-2-yl)methoxy)carbonyl)amino)-2-phenylethyl)boronic acid]
1540 nM	2 nM	> 5000 nM	Cc1ccc(C[C@H](NC(=O)OC[C@H]2CCCN2C(=O)C(C#N)=CC(C)(C)C)B(O)O)cc1 [Example 18, ((R)-1-(((((R)-1-(2-cyano-4,4-dimethylpent-2-enoyl)pyrrolidin-2-yl)methoxy)carbonyl)amino)-2-(p-tolyl)ethyl)boronic acid]
3260 nM	60 nM	> 5000 nM	C=CC(=O)N1CCC[C@@H]1COC(=O)N[C@@H](Cc1ccc(C)cc1)B(O)O [Example 19, ((R)-1-(((((R)-1-acryloylpyrrolidin-2-yl)methoxy)carbonyl)amino)-2-(p-tolyl)ethyl)boronic acid]
1940 nM	1.4 nM	4780 nM	CC(C)(C=C(C#N)C(=O)N1CCC[C@@H]1COC(=O)N[C@@H](Cc1ccccc1)B(O)O)N1CCC(F)(F)CC1 [Example 21, ((R)-1-(((((R)-1-(2-cyano-4-(4,4-difluoropiperidin-1-yl)-4-methylpent-2-enoyl)pyrrolidin-2-yl)methoxy)carbonyl)amino)-2-phenylethyl)boronic acid]
1390 nM	3.7 nM	> 5000 nM	Cc1ccc(C[C@H](NC(=O)OC[C@H]2CCCCN2C(=O)C(C#N)=CC(C)(C)C)B(O)O)cc1 [Example 24, ((R)-1-(((((R)-1-(2-cyano-4,4-dimethylpent-2-enoyl)piperidin-2-yl)methoxy)carbonyl)amino)-2-(p-tolyl)ethyl)boronic acid]
172 nM	0.6 nM	> 5000 nM	CC(C)(C)C=C(C#N)C(=O)N1CCCC[C@@H]1COC(=O)N[C@@H](Cc1coc2ccccc12)B(O)O [Example 25, ((R)-2-(benzofuran-3-yl)-1-(((((R)-1-(2-cyano-4,4-dimethylpent-2-enoyl)piperidin-2-yl)methoxy)carbonyl)amino)ethyl)boronic acid]
2110 nM	1.2 nM	> 5000 nM	CC(C)(C)C=C(C#N)C(=O)N1C[C@@H]2C[C@@H]2[C@@H]1COC(=O)N[C@@H](Cc1ccccc1)B(O)O [Example 26]
550 nM	2.2 nM	–	CC(C)(C=C(C#N)C(=O)N1CCCC[C@@H]1COC(=O)N[C@@H](Cc1ccc(S(C)(=O)=O)cc1)B(O)O)N1CCC(F)(F)C1 [Example 124, ((R)-1-(((((R)-1-(2-cyano-4-(3,3-difluoropyrrolidin-1-yl)-4-methylpent-2-enoyl)piperidin-2-yl)methoxy)carbonyl)amino)-2-(4-(methylsulfonyl)phenyl)ethyl)boronic acid]
2860 nM	1.6 nM	–	COC(=O)N1CCN(C(C)(C)C=C(C#N)C(=O)N2CCCC[C@@H]2COC(=O)N[C@@H](Cc2ccccc2)B(O)O)CC1 [Example 125, ((R)-1-(((((R)-1-(2-cyano-4-(4-(methoxycarbonyl)piperazin-1-yl)-4-methylpent-2-enoyl)piperidin-2-yl)methoxy)carbonyl)amino)-2-phenylethyl)boronic acid]
900 nM	5 nM	–	CC(C)(C=C(C#N)C(=O)N1CCCC[C@@H]1COC(=O)N[C@@H](Cc1ccc(F)cc1)B(O)O)N1CCN(C2COC2)CC1 [Example 127, ((R)-1-(((((R)-1-(2-cyano-4-methyl-4-(4-(oxetan-3-yl)piperazin-1-yl)pent-2-enoyl)piperidin-2-yl)methoxy)carbonyl)amino)-2-(4-fluorophenyl)ethyl)boronic acid]
2730 nM	2.3 nM	–	CC(C)(C)/C=C(\C#N)C(=O)N1CCNC[C@@H]1COC(=O)N[C@@H](Cc1ccccc1)B(O)O [Example 128, ((R)-1-(((((R)-1-((E)-2-cyano-4,4-dimethylpent-2-enoyl)piperazin-2-yl)methoxy)carbonyl)amino)-2-phenylethyl)boronic acid]
1940 nM	2 nM	–	CC(C)(C=C(C#N)C(=O)N1CCCC[C@]1(C)COC(=O)N[C@@H](Cc1ccccc1)B(O)O)N1CCC(F)(F)C1 [Example 129, ((R)-1-(((((R)-1-(2-cyano-4-(3,3-difluoropyrrolidin-1-yl)-4-methylpent-2-enoyl)-2-methylpiperidin-2-yl)methoxy)carbonyl)amino)-2-phenylethyl)boronic acid]
